Test results: US10143719B2, “Inhibitors of valosin-containing protein and methods of use” (CASE WESTERN RESERVE UNIVERSITY, priority 2015, dated 2018)
Residues, ends and D or L forms follow the SMILES beside them. *: point of attachment. Cbz = O=C(OCc1ccccc1)*

System: Htt or mtHtt
Assay: Htt/mtHtt protein levels after proteasome or VCP inhibitor
Format: cell-based, mouse
Settings: HdhQ or HdhQ111 cells
Excerpt: VCP plays a central role in protein degradation by binding to its substrates.

SMILES	Htt or mtHtt protein levels
CC1(C)C(N(O)C(=O)Nc2ccc(Cl)cc2)N(c2ccc(Cl)cc2)C(=O)N1CC(=O)N/N=C/C=C/c1ccc([N+](=O)[O-])o1 (centres unmarked) [Eeyarestatin I]	did not affect Htt or mtHtt protein levels
CC(C)C[C@@H](C=O)NC(=O)[C@H](CC(C)C)NC(=O)[C@H](CC(C)C)NC(=O)OCc1ccccc1 [MG132] (Cbz-Leu-Leu-Leu-aldehyde)	did not affect Htt or mtHtt protein levels
